Measured values: PMC10016038, “Enhanced Endosomal Signaling and Desensitization of GLP-1R vs GIPR in Pancreatic Beta Cells” (Endocrinology, 2023)

What was measured:
[1] = test system: calcium response in INS-1 832/3 cells; assay: Calcium assay, INS-1 832/3 cells; assay type: cell-based, rat; conditions: for Calcium response, net difference between both receptors: INS-1 832/3
Experimental: Imaging of INS-1 832/3 cells or whole-islet Ca^2+ dynamics was performed as follows: cells or Matrigel-encased islets from individual animals were loaded with the Ca^2+ responsive dye Cal-520 AM (AAT Bioquest), pre-incubated for 1 hour in KRBH G6, and imaged in MatTek glass bottom dishes every 6 second at 488 nm using a Nikon Eclipse Ti microscope with an ORCA-Flash 4.0 camera (Hamamatsu) and Metamorph software (Molecular Devices) while maintained at 37 °C on a heated stage. Raw fluorescence intensity traces from cell-occupied areas or islet ROIs were extracted using Fiji. Responses were plotted relative to the average fluorescence intensity during the 6 mM glucose baseline period, before agonist addition.
Figure 7. Functional analysis of GLP-1R vs GIPR signaling in beta cells. […] Data are mean ± SEM, compared by paired t tests; *P < .05; ns, nonsignificant.

[2] = test system: SNAP-tagged human GIPR; assay: TR-FRET receptor clustering, SNAP-GIPR; assay type: cell-based; conditions: 100 nM, 37 °C, n = 4
Experimental: The time-resolved fluorescence resonance energy transfer (TR-FRET) assay was performed as previously described ([24]). INS-1 832/3 SNAP-GLP-1R or SNAP-GIPR cells were labeled in suspension with 40 nM SNAP-Lumi4-Tb and 1 mM SNAP-Surface 649 (New England Biolabs, Hitchin, UK) for 1 hour at room temperature in complete medium. […] TR-FRET was quantified as the ratio of fluorescent signal at 665 nm to that at 616 nm, after subtraction of background signal at each wavelength.
Figure 3. GLP-1R vs GIPR clustering propensities in beta cells. […] Diffusion coefficients for individual ROIs are indicated on each image, with corresponding intensity traces, as well as 2D and fitted 3D autocorrelation maps for each ROI, are also depicted. (B) Average RICS diffusion coefficients for each receptor and treatment for each cell analyzed from n = 4 experiments. (C) GLP-1R clustering kinetics measured by TR-FRET in INS-1 832/3 SNAP-GLP-1R cells treated with 100 nM agonist as indicated, with vehicle-corrected AUCs included; n = 4. (D) GIPR clustering kinetics measured by TR-FRET in INS-1 832/3 SNAP-GIPR cells treated with 100 nM agonist as indicated, with vehicle-corrected AUCs included; n = 4. Data are mean ± SEM, compared by one-way ANOVA with Sidak's test; ****P < .0001; ns: non-significant. […] Best readings: GLP-1R Veh i 2.03, ii 1.56, iii 1.44 μm^2/s; GIPR Veh i 0.80, ii 0.34, iii 0.44 μm^2/s. […]

[3] = test system: GIPR-SmBiT; assay: Mini-G protein/β-arrestin 2 recruitment NanoBiT, GIPR; assay type: cell-based; conditions: 100 nM GIP, n = 5
From the text: Here the SmBiT was cloned in frame at the C-terminus of the GLP-1R and the GIPR by substitution of the Tango sequence on FLAG-tagged GLP-1R-Tango or GIPR-Tango (a gift from Prof. Bryan Roth, University of North Carolina, USA; Addgene plasmids #66291 and #66294), respectively. Mini-Gs, mini-Gq, and mini-Gi plasmids, tagged at the N-terminus with LgBiT, were a gift from Prof. Nevin Lambert, Medical College of Georgia, USA. For β-arrestin 2 recruitment assays, β-arrestin 2 fused at the N-terminus to LgBiT (LgBiT-β-arrestin 2; Promega, plasmid no. CS1603B118) was chosen as it has previously been used successfully with other class B GPCRs. […]
All NanoBiT and NanoBRET readings were obtained in a Flexstation 3 plate reader. […] Readings were normalized to well baseline and then to average vehicle-induced signal to establish the agonist-induced effect. AUCs from response curves were calculated for each agonist concentration and fitted to four-parameter curves using Prism 9 (GraphPad).
Figure 5. […] (A) Kinetics of Gαs, Gαq, Gαi, and β-arrestin 2 recruitment to the GLP-1R assessed by NanoBiT complementation assay in INS-1 832/3 GLP-1R KO cells transiently expressing GLP-1R-SmBiT and the corresponding mini-G protein subtype or β-arrestin 2. […]

[4] = test system: SNAP-GLP-1R; assay: Nb37 bystander NanoBiT, plasma membrane (CAAX), GLP-1R; assay type: cell-based, human; conditions: 30-minute AUC, n = 4
From the text: The Nb37 assay constructs were kindly provided by Prof. Asuka Inoue, Tohoku University, Japan. Nb37 (gene synthesized by GenScript with codon optimization) was C-terminally fused to SmBiT with a 15 amino acid flexible linker ([…]), and the resulting construct referred to as Nb37-SmBiT. The C-terminal KRAS CAAX motif ([…]) was N-terminally fused with LgBiT (LgBiT-CAAX). The Endofin FYVE domain (amino acid region Gln739-Lys806) was C-terminally fused with LgBiT (Endofin-LgBiT). Gαs (human, short isoform), Gβ1 (human), Gγ2 (human), and RIC8B (human, isoform 2) plasmids were inserted into pcDNA3.1 or pCAGGS expression plasmid vectors. INS-1 832/3 GLP-1R KO or GIPR KO cells were seeded in 6-well plates and co-transfected with 0.1 μg SNAP-GLP-1R or SNAP-GIPR, 0.5 μg Gαs, Gβ1, and Gγ2, 0.1 μg RIC8B, 0.1 μg CAAX-LgBiT or 0.5 μg Endofin-LgBiT with 0.1 μg or 0.5 μg Nb37-SmBiT, respectively, with 0.8 µg pcDNA3.1 added to the former to equalize DNA content.
All NanoBiT and NanoBRET readings were obtained in a Flexstation 3 plate reader. […] Readings were normalized to well baseline and then to average vehicle-induced signal to establish the agonist-induced effect. AUCs from response curves were calculated for each agonist concentration and fitted to four-parameter curves using Prism 9 (GraphPad). […]

Substance | Calcium response, net difference between both receptors ([1]; Cal-520 AM, 100 nM, n = 4) | Calcium response, GIPR compared with GLP-1R, 0-1 minute ([1]; Cal-520 AM, 100 nM, first minute, n = 4) | Calcium response, GIPR compared with GLP-1R, 1-5 minutes ([1]; Cal-520 AM, 100 nM, following 4 minutes, n = 4) | Calcium response tendency, GIP vs GLP-1, INS-1 832/3 ([1]; summary in discussion) | GIPR clustering [2] | GIPR responses for all readouts (Gαs, Gαq, Gαi, β-arrestin 2) compared with GLP-1R ([3]; 30 minutes) | Gαs recruitment to the GIPR [3] | Recruitment of Nb37 to active GLP-1Rs vs GIPRs within the plasma membrane [4]
GIP(1-42) | zero net difference | initial trend for a decreased GIPR compared with GLP-1R response | this tendency was reversed | tendency toward increased | could not be detected | markedly reduced for all readouts | almost as low as those obtained for Gαi | –
GLP-1(7-36)NH2 | zero net difference | – | – | – | not detectable | – | – | no significant differences
